Source: patent US4548938A, “5-H-1,3,4-thiadiazolo[3,2-a]pyrimidin-5-one compounds” (Janssen Pharmaceutica N.V., priority 1985, dated 1985)
Structures can show the parent of a compound that is named as a salt. Where two headings read alike, the source gives them in different places.

What was measured:
[1] = test system: compound 48/80-induced gastric lesions; settings: rats treated with compound 48/80; known serotonin antagonists; cited from earlier work
[2] = test system: compound 48/80-induced gastric lesions; test: gastric lesion test: lesions induced by compound 48/80; type: in vivo; settings: Rattus norvegicus, read-out: gastric lesion test ED50
[3] = test system: compound 48/80-induced lethality; test: protection of rats from compound 48/80-induced lethality; type: in vivo, male Wistar rats; settings: Rattus norvegicus, sc, 4 h, s.c., compound 48/80 0.5 mg/kg i.v. 1 hour after treatment, 50% protected against lethality, read-out: 48/80-test ED50
Description: PROTECTION OF RATS FROM COMPOUND 48/80-INDUCED LETHALITY
Compound 48/80, a mixture of oligomers obtained by condensation of 4-methoxy-N-methyl-phenethylamine and formaldehyde has been described as a potent histamine releasing agent (Int. Arch. Allergy, 13, 336 (1958)). The protection from compound 48/80-induced lethal circulatory collapse appears to be a simple way of evaluating quantitatively the antihistaminic activity of test-compounds. Male rats of an inbred Wistar strain, weighing 240-260 g were used in the experiment. After overnight starvation the rats were transferred to conditioned laboratories (temp.=21±1° C., relative humidity=65±5%). The rats were treated subcutaneously or orally with a test compound or with the solvent (NaCl solution, 0.9%). One hour after treatment there was injected intravenously compound 48/80, freshly dissolved in water, at a dose of 0.5 mg/kg (0.2 ml/100 g of body weight). In control experiments, wherein 250 solvent-treated animals were injected with the standard dose of compound 48/80 not more than 2.8% of the animals survived after 4 hours, is therefore considered to be a safe criterion of a protective effect of drug administration.
In this connection the ED50 -values are the minimal doses of the concerned compounds, administered in the subcutaneous way, whereby 50% of the rats are protected against compound 48/80-induced lethality.

[4] = test system: apomorphine-induced phenomena: agitation and stereotypic chewing; test: apomorphine (APO) test in rats, part of the combined APO-TRY-NOR test; type: in vivo, male Wistar rats; settings: Rattus norvegicus, sc, 0.5 h, read-out: ED50 (APO)-rat
[5] = test system: tryptamine-induced bilateral tonic seizures; test: tryptamine (TRY) test in rats, part of the combined APO-TRY-NOR test; type: in vivo, male Wistar rats; settings: Rattus norvegicus, sc, 1.5 h, tryptamine 40 mg/kg i.v. at 90 min
[6] = test system: apomorphine-induced emesis; test: apomorphine test in dogs (APO-dog); type: in vivo; settings: Canis lupus familiaris, sc; beagle dogs; apomorphine 0.31 mg/kg s.c. 1 hour after compound; protection from emesis
[7] = test system: norepinephrine-induced mortality; test: norepinephrine (NOR) test in rats, part of the combined APO-TRY-NOR test; type: in vivo, male Wistar rats; settings: Rattus norvegicus, sc, 2 h, norepinephrine 1.25 mg/kg i.v. at 120 min
Procedure: THE COMBINED APOMORPHINE (APO)-, TRYPTAMINE (TRY)- AND NOREPINEPHRINE (NOR) TEST IN RATS
The experimental animals used in this test were adult male Wistar rats (weight 240±10 g). After an overnight fast, the animals were treated subcutaneously (1 ml/100 g) with an aqueous solution of the compound under investigation (time=zero) and put in isolated observation cages. […] At the end of this 1 hour period (time=90 minutes) the same animals were injected intravenously with 40 mg/kg of tryptamine (TRY) and the presence of the typical tryptamine-induced bilateral tonic seizures was noted. Two hours after pretreatment (time=120 minutes) finally, the same animals were challenged with 1.25 mg/kg intravenously of norepinephrine (NOR) and possible mortality was looked for up to 60 minutes later.
The table 1 gives the ED50 -values of a number of the compounds under consideration. As used herein, the ED50 -value represents the dose which protects 50% of the animals from apomorphine-, tryptamine- or norepinephrine-induced phenomena.

[8] = test system: serotonin-induced contraction of rat caudal artery; test: antagonistic activity on the effect of serotonin on the caudal artery of the rat; settings: serotonin 40 ng/ml; minimal concentration reducing contraction amplitude to at least 50% of normal; 5 min
Procedure: ANTAGONISTIC ACTIVITY ON THE EFFECT OF SEROTONIN ON THE CAUDAL ARTERY OF THE RAT
Caudal arteries from fasted male rats (210-235 g) were used in the test. Two helical strips having a length of 5-6 cm and a width of 2 mm. were obtained from each artery and mounted vertically in a 100 ml organ bath containing an oxygenated Krebs-Henseleit solution. Submaximal contractions of the arterial strips were produced by adding single doses of serotonin (40 ng/ml) to the organ bath for 2 minutes with each time an interval of 10 minutes. The amplitude of the contraction was measured before and 5 minutes after adding the drug. After washing out, the agonist was added again three times in order to see whether the contraction was restored and normalized.

[9] = rats, compound 48/80, distension of the stomach completely absent in 50% of rats
[10] = s.c., rats, apomorphine 1.25 mg/kg i.v. 30 min after compound

For `CN(C)CCCSc1ccccc1NC(=O)/C=C/c1ccccc1` [cinanserin], the “prevention of cyanosis of ears and extremities, lesions in the glandular area of the stomach and abnormal gastric distension” value (from here on “prevention”) [1] is given as “prevent completely”.

In the case of `Cc1nc2n(c(=O)c1CCN1CCC(C(=O)c3ccc(F)cc3)CC1)CCCS2` [compound 2, 7-[2-[4-(4-fluorobenzoyl)-1-piperidinyl]ethyl]3,4-dihydro-8-methyl-2H,6H-pyrimido[2,1-b][1,3]thiazin-6-one], the ED50 [2, 9] is reported as 0.01 mg/kg, the ED50 [3] is reported as 0.16 mg/kg and the ED50 [4] is reported as 0.31 mg/kg. It also gave an ED50 [5] of 0.63 mg/kg, an ED50 [6] of 0.03 mg/kg and an ED50 [7] of 1.25 mg/kg. For the same compound, the “caudal artery rat ED50” value [8] was 0.32 ng/mL.

In the case of `Cc1nc2n(c(=O)c1CCN1CCC(c3c[nH]c4ccccc34)CC1)CCCS2` [compound 3, 3,4-dihydro-7-[2-[4-(1H-indol-3-yl)-1-piperidinyl]ethyl]-8-methyl-2H,6H-pyrimido[2,1-b][1,3]thiazin-6-one], the ED50 [2, 9] is reported as 0.02 mg/kg, the ED50 [3] is reported as 0.04 mg/kg and the ED50 [4] is reported as 0.63 mg/kg. The ED50 [5] was 0.63 mg/kg, the ED50 [6] was 0.015 mg/kg and the ED50 [7] was 1.25 mg/kg. For the same compound, the “caudal artery rat ED50” value [8] was 0.32 ng/mL.

Work on `Cc1nc2sccn2c(=O)c1CCN1CCC(C(=O)c2ccc(F)cc2)CC1` [compound 5, 6-[2-[4-(4-fluorobenzoyl)-1-piperidinyl]ethyl]-7-methyl-5H-thiazolo[3,2-a]pyrimidin-5-one] yielded an ED50 [2, 9] of 0.005 mg/kg, an ED50 [3] of 0.31 mg/kg and an ED50 [4, 10] of 0.02 mg/kg. The ED50 [5] was 0.01 mg/kg, the ED50 [6] was 0.015 mg/kg and the ED50 [7] was 0.63 mg/kg. The “caudal artery rat ED50” value [8] was 0.14 ng/mL.

For `Cc1nc2sc3ccccc3n2c(=O)c1CCN1CCC(C(=O)c2ccc(F)cc2)CC1` [compound 6, 3-[2-[4-(4-fluorobenzoyl)-1-piperidinyl]ethyl]-2-methyl-4H-pyrimido[2,1-b]benzothiazol-4-one], the ED50 [2] was 0.08 mg/kg, the ED50 [3] was 0.16 mg/kg and the ED50 [4, 10] was 5 mg/kg. It also gave an ED50 [5] of 0.02 mg/kg, an ED50 [6] of 1.8 mg/kg and an ED50 [7] of 0.31 mg/kg. For the same compound, the “caudal artery rat ED50” value [8] was 0.14 ng/mL.

With `Cc1nn2c(=O)c(CCN3CCC(C(=O)c4ccc(F)cc4)CC3)c(C)nc2s1` [compound 7] the ED50 [2, 9] was 0.0025 mg/kg, the ED50 [3] was 0.16 mg/kg and the ED50 [4] was 2.5 mg/kg. For the same compound, the ED50 [5] was 0.31 mg/kg, the ED50 [6] was 0.5 mg/kg and the ED50 [7] was 0.63 mg/kg. The “caudal artery rat ED50” value [8] was 1.25 ng/mL.

In the case of `Cc1nc2sc3c(n2c(=O)c1CCN1CCC(C(=O)c2ccc(F)cc2)CC1)CCC3` [compound 8, 3-[2-[4-(4-fluorobenzoyl)-1-piperidinyl]ethyl]7,8-dihydro-2-methyl-4H,6H-cyclopenta[4,5]thiazolo[3,2-a]pyrimidin-4-one], the ED50 [2] is reported as 0.04 mg/kg, the ED50 [3] is reported as 0.31 mg/kg and the ED50 [4] is reported as 1.25 mg/kg. For the same compound, the ED50 [5] was 0.31 mg/kg, the ED50 [6] was 0.25 mg/kg and the ED50 [7] was 0.63 mg/kg. The “caudal artery rat ED50” value [8] was 0.32 ng/mL.

Compound `Cc1nc2sccn2c(=O)c1CCN1CCC(C)(C(=O)c2ccc(F)cc2)CC1` [compound 9, monohydrochloride] has an ED50 [2, 9] of 0.005 mg/kg, an ED50 [3] of 0.16 mg/kg and an ED50 [4] of 0.63 mg/kg. For the same compound, the ED50 [5] was 0.16 mg/kg, the ED50 [6] was 0.25 mg/kg and the ED50 [7] was 1.25 mg/kg. The “caudal artery rat ED50” value [8] was 0.32 ng/mL.

`Cc1nc2scc(C)n2c(=O)c1CCN1CCC(c2c[nH]c3ccccc23)CC1` [compound 11, 6-[2-[4-(1H-indol-3-yl)-1-piperidinyl]ethyl]-3,7-dimethyl-5H-thiazolo[3,2-a]pyrimidin-5-one] gave an ED50 [2, 9] of 0.0025 mg/kg, an ED50 [3] of 0.08 mg/kg and an ED50 [4, 10] of 0.08 mg/kg. It also gave an ED50 [5] of 0.04 mg/kg, an ED50 [6] of 0.004 mg/kg and an ED50 [7] of 0.16 mg/kg. The “caudal artery rat ED50” value [8] was 0.14 ng/mL.

Work on `Cc1nc2sccn2c(=O)c1CCN1CCC(c2c[nH]c3ccccc23)CC1` [compound 12, 6-[2-[4-(1H-indol-3-yl)-1-piperidinyl]ethyl]-7-methyl-5H-thiazolo[3,2-a]pyrimidin-5-one] yielded an ED50 [2, 9] of 0.08 mg/kg, an ED50 [3] of 0.02 mg/kg and an ED50 [4, 10] of 0.08 mg/kg. The ED50 [5] was 0.08 mg/kg, the ED50 [6] was 0.08 mg/kg and the ED50 [7] was 0.31 mg/kg. For the same compound, the “caudal artery rat ED50” value [8] was 0.08 ng/mL.

`Cc1nc2sc3c(n2c(=O)c1CCN1CCC(c2c[nH]c4ccccc24)CC1)CCC3` [compound 17, 7,8-dihydro-3-[2-[4-(1H-indol-3-yl)-1-piperidinyl]ethyl]-2-methyl-4H,6H-cyclopenta[4,5]thiazolo[3,2-a]-pyrimidin-4-one] showed an ED50 [2, 9] of 0.31 mg/kg, an ED50 [3] of 0.08 mg/kg and an ED50 [4, 10] of 0.63 mg/kg. The ED50 [5] was 0.16 mg/kg, the ED50 [6] was 0.03 mg/kg and the ED50 [7] was 0.31 mg/kg. For the same compound, the “caudal artery rat ED50” value [8] was 0.31 ng/mL.

Compound `Cc1nc2sccn2c(=O)c1CCN1CCC(c2c[nH]c3ccc(F)cc23)CC1` [compound 22, 6-[2-[4-(5-fluoro-1H-indol-3-yl)-1-piperidinyl]ethyl]-7-methyl-5H-thiazolo[3,2-a]pyrimidin-5-one] has an ED50 [2, 9] of 0.08 mg/kg, an ED50 [3] of 1.25 mg/kg and an ED50 [4] of 1.25 mg/kg. The ED50 [5] was 0.31 mg/kg, the ED50 [6] was 0.12 mg/kg and the ED50 [7] was 1.25 mg/kg. For the same compound, the “caudal artery rat ED50” value [8] was 1.25 ng/mL.

Work on `Cc1nc2sc(C)c(C)n2c(=O)c1CCN1CCC(c2c[nH]c3ccccc23)CC1` [compound 25, 6-[2-[4-(1H-indol-3-yl)-1-piperidinyl]ethyl]-2,3,7-trimethyl-5H-thiazolo[3,2-a]pyrimidin-5-one] yielded an ED50 [2, 9] of 0.16 mg/kg, an ED50 [3] of 0.04 mg/kg and an ED50 [4, 10] of 0.31 mg/kg. The ED50 [5] was 0.16 mg/kg, the ED50 [6] was 0.015 mg/kg and the ED50 [7] was 0.63 mg/kg. The “caudal artery rat ED50” value [8] was 0.32 ng/mL.

For `CN1CCC(=C2c3ccccc3C=Cc3ccccc32)CC1` [cyproheptadine], the “prevention” value [1] is listed as “prevent completely”.

In the case of `CN1C[C@H](CNC(=O)OCc2ccccc2)C[C@@H]2c3cccc4c3c(cn4C)C[C@H]21` [metergoline], the “prevention” value [1] is given as “prevent completely”.

In the case of `CC[C@@H](CO)NC(=O)[C@@H]1C=C2c3cccc4c3c(cn4C)C[C@H]2N(C)C1` [methysergide], the “prevention” value [1] is given as “prevent completely”.

For `CN1CCN2c3ccccc3Cc3ccccc3C2C1` (centres unmarked) [mianserin], the “prevention” value [1] is given as “prevent completely”.

In the case of `NC(=O)C1(N2CCCCC2)CCN(CCCC(=O)c2ccc(F)cc2)CC1` [pipamperone], the “prevention” value [1] is listed as “prevent completely”.

For `CN1CCC(=C2c3ccccc3CCc3sccc32)CC1` [pizotifen], the “prevention” value [1] is listed as “prevent completely”.

In the case of `O=C(CCCN1CCC2(CC1)C(=O)NCN2c1ccccc1)c1ccc(F)cc1` [spiperone], the “prevention” value [1] is listed as “prevent completely”.
